According to patent US20220089578A1, “COMPOUNDS AS GLP-1R AGONISTS” (Terns Pharmaceuticals, Inc., priority 2020, published 2022):

Target: human GLP-1R (Homo sapiens, UniProt P43220)
Experiment: GLP-1R Cell Assay 2: CHO-K1_hGLP-1Rlow_clone10 cells, LANCE Ultra cAMP TR-FRET assay
Format: cell-based
Design: expressed in transfected cells
Conditions: Table 3, percent activation relative to control GLP-1 peptide agonist
Method: Stable cell lines expressing high and low GLP-1R surface expression were generated in CHO-K1 cells transfected (Fugene 6) with a puromycin selectable DNA plasmid encoding human GLP-1R receptor (accession number: NM_002062.5) under control of an EF1A promoter. Transfected cells were seeded into 24-well plates (9,000 cells/well) containing complete medium and incubated in a humidified incubator at 37° C. with 5% carbon dioxide. After overnight incubation, medium was replaced with complete medium supplemented with puromycin (6 μg/mL) and refreshed every 2-3 days to select for stably transfected cells. Individual pools of selected cells were expanded prior to analysis for responsiveness to GLP-1 control peptide using a TR-FRET assay to detect cAMP (LANCE Ultra cAMP Assay, Perkin Elmer). Briefly, cells were collected in Versene solution, plated in 384-well plates (1,000 cells/well) and combined with serially diluted GLP-1R control peptide (10 nL) using an acoustic dispenser (ECHO). Plates were incubated for 30 minutes at 25° C. prior to the addition of EU-cAMP tracer (5 μL) and Ulight-anti-cAMP (5 μL) reagents to each well, followed by 15 minutes incubation at 25° C. TR-FRET signal was detected using an EnVision Multimode Plate Reader (excitation=320 nm; emission=615 and 655 nm). Dose-response curves were used to generate EC50 values as a measure of responsiveness to the GLP-1R control peptide. Selected cell lines were monitored for responsiveness over multiple passages to ensure stability. […] Briefly, GLP-1R expression was analyzed by flow cytometry using a fluorescein-labeled Exendin-4 peptide fluorescent probe (FLEX). Cells were harvested in Versene solution and washed 3-times with PBS+0.5% BSA before incubation with FLEX reagent (10 μM) for 2 hours at room temperature. After incubation, cells were washed 3-times in PBS+0.5% BSA before final resuspension in PBS prior to analysis by flow cytometry to measure FLEX mean fluorescence intensity (MFI) as a measure of GLP-1R expression on the cell surface.
For compound testing in the CHO-K1_hGLP-1Rlow_clonel0 cell lines, cells were seeded in 384-well plates (1,000 cells/well). Test compounds were serially diluted in DMSO (10-point, 3-fold dilution), added to wells using an ECHO dispenser (10 nL/well) and plates were centrifuged for 1 min and agitated for 2 min at room temperature prior to 30-minute incubation at 25° C. After incubation, Eu-cAMP (5 p,L) and Ulight-anti-cAMP (5 μL) reagents were added to each well, followed by centrifugation for 1 minute, agitation for 2 minutes at room temperature, and final incubation of the plates at 25° C. for 15 minutes. Plates were read using an EnVision microplate reader (excitation=320 nm; emission=615 and 655 nm). Dose-response curves were generated from duplicate wells based on percent activation calculated relative to a control GLP-1 peptide agonist that was run in parallel. EC50 values were determined by fitting percent activation as a function of compound concentration using the Hill equation (XLfit).

Chain of human GLP-1R (P43220 24-463): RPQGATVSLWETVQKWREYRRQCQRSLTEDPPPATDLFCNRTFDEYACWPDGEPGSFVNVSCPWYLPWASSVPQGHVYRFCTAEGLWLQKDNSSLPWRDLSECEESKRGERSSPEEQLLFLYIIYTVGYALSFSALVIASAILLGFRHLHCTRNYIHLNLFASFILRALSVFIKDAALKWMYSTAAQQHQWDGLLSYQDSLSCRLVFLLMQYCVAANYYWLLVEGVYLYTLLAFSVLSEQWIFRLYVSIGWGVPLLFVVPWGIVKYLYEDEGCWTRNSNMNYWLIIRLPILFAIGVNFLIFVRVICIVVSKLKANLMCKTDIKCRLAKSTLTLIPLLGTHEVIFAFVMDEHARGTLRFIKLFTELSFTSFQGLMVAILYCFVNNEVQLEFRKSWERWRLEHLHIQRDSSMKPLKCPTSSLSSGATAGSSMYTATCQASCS

EC50: 13.2 nM
SMILES: N#Cc1cccc2c(COc3cccc(C4CCN(Cc5nc6ccc(C(=O)O)cc6n5C[C@@H]5CCO5)CC4)n3)csc12 [Compound 187, (S)-2-((4-(6-((7-cyanobenzo[b]thiophen-3-yl)methoxy)pyridin-2-yl)piperidin-1-yl)methyl)-1-(oxetan-2-ylmethyl)-1H-benzo[d]imidazole-6-carboxylic acid]
